# Reference: ChEMBL document CHEMBL3797052 (Eur J Med Chem, 2016)
# Test system: not listed separately
# Test: Cytotoxicity against human HCT116 cells assessed as growth inhibition at 100 uM after 2 days by MTT assay
# Assay type: functional
# Conditions: HCT-116, 48 h, read-out: GI
row,SMILES,inhibition of growth at 100 µM
1,CNC(=O)c1cc(Oc2ccc3nc(NC(=O)Nc4ccc(Cl)c(C(F)(F)F)c4)sc3c2)ccn1,94.4%

# Test system: not listed separately
# Test: Cytotoxicity against human HCT116 cells assessed as growth inhibition at 10 uM after 2 days by MTT assay
# Assay type: functional
# Conditions: HCT-116, 48 h, read-out: GI
row,SMILES,inhibition of growth at 10 µM
1,CNC(=O)c1cc(Oc2ccc3nc(NC(=O)Nc4ccc(Cl)c(C(F)(F)F)c4)sc3c2)ccn1,82.8%

# Test system: not listed separately
# Test: Cytotoxicity against human SKBR3 cells assessed as growth inhibition at 100 uM after 2 days by MTT assay
# Assay type: functional
# Conditions: SK-BR-3, 48 h, read-out: GI
row,SMILES,inhibition of growth at 100 µM
1,CNC(=O)c1cc(Oc2ccc3nc(NC(=O)Nc4ccc(Cl)c(C(F)(F)F)c4)sc3c2)ccn1,94.5%

# Test system: not listed separately
# Test: Cytotoxicity against human SKBR3 cells assessed as growth inhibition at 10 uM after 2 days by MTT assay
# Assay type: functional
# Conditions: SK-BR-3, 48 h, read-out: GI
row,SMILES,inhibition of growth at 10 µM
1,CNC(=O)c1cc(Oc2ccc3nc(NC(=O)Nc4ccc(Cl)c(C(F)(F)F)c4)sc3c2)ccn1,79.6%

# Test system: not listed separately
# Test: Antiproliferative activity against human MOLT4 cells assessed as cell growth at 10^-5 M after 48 hrs by sulforhodamine B assay
# Assay type: functional
# Conditions: MOLT-4, 48 h, read-out: Activity
row,SMILES,growth at 10 µM
1,CNC(=O)c1cc(Oc2ccc3nc(NC(=O)Nc4ccc(Cl)c(C(F)(F)F)c4)sc3c2)ccn1,38%

# Test system: not listed separately
# Test: Antiproliferative activity against human RPMI8226 cells assessed as cell growth at 10^-5 M after 48 hrs by sulforhodamine B assay
# Assay type: functional
# Conditions: RPMI-8226, 48 h, read-out: Activity
row,SMILES,growth at 10 µM
1,CNC(=O)c1cc(Oc2ccc3nc(NC(=O)Nc4ccc(Cl)c(C(F)(F)F)c4)sc3c2)ccn1,-10%

# Test system: A549
# Test: Antiproliferative activity against human A549/ATCC cells assessed as cell growth at 10^-5 M after 48 hrs by sulforhodamine B assay
# Assay type: functional
# Conditions: A549, 48 h, read-out: Activity
row,SMILES,growth at 10 µM
1,CNC(=O)c1cc(Oc2ccc3nc(NC(=O)Nc4ccc(Cl)c(C(F)(F)F)c4)sc3c2)ccn1,-50%

# Test system: not listed separately
# Test: Antiproliferative activity against human HOP62 cells assessed as cell growth at 10^-5 M after 48 hrs by sulforhodamine B assay
# Assay type: functional
# Conditions: HOP-62, 48 h, read-out: Activity
row,SMILES,growth at 10 µM
1,CNC(=O)c1cc(Oc2ccc3nc(NC(=O)Nc4ccc(Cl)c(C(F)(F)F)c4)sc3c2)ccn1,-42%

# Test system: not listed separately
# Test: Antiproliferative activity against human HOP92 cells assessed as cell growth at 10^-5 M after 48 hrs by sulforhodamine B assay
# Assay type: functional
# Conditions: HOP-92, 48 h, read-out: Activity
row,SMILES,growth at 10 µM
1,CNC(=O)c1cc(Oc2ccc3nc(NC(=O)Nc4ccc(Cl)c(C(F)(F)F)c4)sc3c2)ccn1,-54%

# Test system: NCI-H226
# Test: Antiproliferative activity against human NCI-H226 cells assessed as cell growth at 10^-5 M after 48 hrs by sulforhodamine B assay
# Assay type: functional
# Conditions: NCI-H226, 48 h, read-out: Activity
row,SMILES,growth at 10 µM
1,CNC(=O)c1cc(Oc2ccc3nc(NC(=O)Nc4ccc(Cl)c(C(F)(F)F)c4)sc3c2)ccn1,-14%

# Test system: NCI-H460
# Test: Antiproliferative activity against human NCI-H460 cells assessed as cell growth at 10^-5 M after 48 hrs by sulforhodamine B assay
# Assay type: functional
# Conditions: NCI-H460, 48 h, read-out: Activity
row,SMILES,growth at 10 µM
1,CNC(=O)c1cc(Oc2ccc3nc(NC(=O)Nc4ccc(Cl)c(C(F)(F)F)c4)sc3c2)ccn1,-57%

# Test system: NCI-H522
# Test: Antiproliferative activity against human NCI-H522 cells assessed as cell growth at 10^-5 M after 48 hrs by sulforhodamine B assay
# Assay type: functional
# Conditions: NCI-H522, 48 h, read-out: Activity
row,SMILES,growth at 10 µM
1,CNC(=O)c1cc(Oc2ccc3nc(NC(=O)Nc4ccc(Cl)c(C(F)(F)F)c4)sc3c2)ccn1,6%

# Test system: not listed separately
# Test: Antiproliferative activity against human COLO205 cells assessed as cell growth at 10^-5 M after 48 hrs by sulforhodamine B assay
# Assay type: functional
# Conditions: COLO 205, 48 h, read-out: Activity
row,SMILES,growth at 10 µM
1,CNC(=O)c1cc(Oc2ccc3nc(NC(=O)Nc4ccc(Cl)c(C(F)(F)F)c4)sc3c2)ccn1,-11%

# Test system: not listed separately
# Test: Antiproliferative activity against human HCT15 cells assessed as cell growth at 10^-5 M after 48 hrs by sulforhodamine B assay
# Assay type: functional
# Conditions: HCT-15, 48 h, read-out: Activity
row,SMILES,growth at 10 µM
1,CNC(=O)c1cc(Oc2ccc3nc(NC(=O)Nc4ccc(Cl)c(C(F)(F)F)c4)sc3c2)ccn1,-9%

# Test system: KM12
# Test: Antiproliferative activity against human KM12 cells assessed as cell growth at 10^-5 M after 48 hrs by sulforhodamine B assay
# Assay type: functional
# Conditions: KM12, 48 h, read-out: Activity
row,SMILES,growth at 10 µM
1,CNC(=O)c1cc(Oc2ccc3nc(NC(=O)Nc4ccc(Cl)c(C(F)(F)F)c4)sc3c2)ccn1,20%

# Test system: not listed separately
# Test: Antiproliferative activity against human SNB75 cells assessed as cell growth at 10^-5 M after 48 hrs by sulforhodamine B assay
# Assay type: functional
# Conditions: SNB-75, 48 h, read-out: Activity
row,SMILES,growth at 10 µM
1,CNC(=O)c1cc(Oc2ccc3nc(NC(=O)Nc4ccc(Cl)c(C(F)(F)F)c4)sc3c2)ccn1,-75%

# Test system: Malme-3M
# Test: Antiproliferative activity against human MALME-3M cells assessed as cell growth at 10^-5 M after 48 hrs by sulforhodamine B assay
# Assay type: functional
# Conditions: read-out: Activity
row,SMILES,growth at 10 µM
1,CNC(=O)c1cc(Oc2ccc3nc(NC(=O)Nc4ccc(Cl)c(C(F)(F)F)c4)sc3c2)ccn1,-62%

# Test system: M14
# Test: Antiproliferative activity against human M14 cells assessed as cell growth at 10^-5 M after 48 hrs by sulforhodamine B assay
# Assay type: functional
# Conditions: M14, 48 h, read-out: Activity
row,SMILES,growth at 10 µM
1,CNC(=O)c1cc(Oc2ccc3nc(NC(=O)Nc4ccc(Cl)c(C(F)(F)F)c4)sc3c2)ccn1,-29%

# Test system: SK-MEL-2
# Test: Antiproliferative activity against human SK-MEL-2 cells assessed as cell growth at 10^-5 M after 48 hrs by sulforhodamine B assay
# Assay type: functional
# Conditions: SK-MEL-2, 48 h, read-out: Activity
row,SMILES,growth at 10 µM
1,CNC(=O)c1cc(Oc2ccc3nc(NC(=O)Nc4ccc(Cl)c(C(F)(F)F)c4)sc3c2)ccn1,37%

# Test system: SK-MEL-28
# Test: Antiproliferative activity against human SK-MEL-28 cells assessed as cell growth at 10^-5 M after 48 hrs by sulforhodamine B assay
# Assay type: functional
# Conditions: SK-MEL-28, 48 h, read-out: Activity
row,SMILES,growth at 10 µM
1,CNC(=O)c1cc(Oc2ccc3nc(NC(=O)Nc4ccc(Cl)c(C(F)(F)F)c4)sc3c2)ccn1,-68%

# Test system: not listed separately
# Test: Antiproliferative activity against human UACC257 cells assessed as cell growth at 10^-5 M after 48 hrs by sulforhodamine B assay
# Assay type: functional
# Conditions: UACC-257, 48 h, read-out: Activity
row,SMILES,growth at 10 µM
1,CNC(=O)c1cc(Oc2ccc3nc(NC(=O)Nc4ccc(Cl)c(C(F)(F)F)c4)sc3c2)ccn1,14%

# Test system: not listed separately
# Test: Antiproliferative activity against human IGROV1 cells assessed as cell growth at 10^-5 M after 48 hrs by sulforhodamine B assay
# Assay type: functional
# Conditions: IGROV-1, 48 h, read-out: Activity
row,SMILES,growth at 10 µM
1,CNC(=O)c1cc(Oc2ccc3nc(NC(=O)Nc4ccc(Cl)c(C(F)(F)F)c4)sc3c2)ccn1,-36%

# Test system: not listed separately
# Test: Antiproliferative activity against human OVCAR3 cells assessed as cell growth at 10^-5 M after 48 hrs by sulforhodamine B assay
# Assay type: functional
# Conditions: OVCAR-3, 48 h, read-out: Activity
row,SMILES,growth at 10 µM
1,CNC(=O)c1cc(Oc2ccc3nc(NC(=O)Nc4ccc(Cl)c(C(F)(F)F)c4)sc3c2)ccn1,-70%

# Test system: not listed separately
# Test: Antiproliferative activity against human OVCAR4 cells assessed as cell growth at 10^-5 M after 48 hrs by sulforhodamine B assay
# Assay type: functional
# Conditions: OVCAR-4, 48 h, read-out: Activity
row,SMILES,growth at 10 µM
1,CNC(=O)c1cc(Oc2ccc3nc(NC(=O)Nc4ccc(Cl)c(C(F)(F)F)c4)sc3c2)ccn1,-75%

# Test system: not listed separately
# Test: Antiproliferative activity against human OVCAR8 cells assessed as cell growth at 10^-5 M after 48 hrs by sulforhodamine B assay
# Assay type: functional
# Conditions: OVCAR-8, 48 h, read-out: Activity
row,SMILES,growth at 10 µM
1,CNC(=O)c1cc(Oc2ccc3nc(NC(=O)Nc4ccc(Cl)c(C(F)(F)F)c4)sc3c2)ccn1,-40%

# Test system: not listed separately
# Test: Antiproliferative activity against human SKOV3 cells assessed as cell growth at 10^-5 M after 48 hrs by sulforhodamine B assay
# Assay type: functional
# Conditions: SK-OV-3, 48 h, read-out: Activity
row,SMILES,growth at 10 µM
1,CNC(=O)c1cc(Oc2ccc3nc(NC(=O)Nc4ccc(Cl)c(C(F)(F)F)c4)sc3c2)ccn1,-54%

# Test system: 786-0
# Test: Antiproliferative activity against human 786-0 cells assessed as cell growth at 10^-5 M after 48 hrs by sulforhodamine B assay
# Assay type: functional
# Conditions: 786-0, 48 h, read-out: Activity
row,SMILES,growth at 10 µM
1,CNC(=O)c1cc(Oc2ccc3nc(NC(=O)Nc4ccc(Cl)c(C(F)(F)F)c4)sc3c2)ccn1,-64%

# Test system: A498
# Test: Antiproliferative activity against human A498 cells assessed as cell growth at 10^-5 M after 48 hrs by sulforhodamine B assay
# Assay type: functional
# Conditions: A498, 48 h, read-out: Activity
row,SMILES,growth at 10 µM
1,CNC(=O)c1cc(Oc2ccc3nc(NC(=O)Nc4ccc(Cl)c(C(F)(F)F)c4)sc3c2)ccn1,4%

# Test system: not listed separately
# Test: Antiproliferative activity against human Caki1 cells assessed as cell growth at 10^-5 M after 48 hrs by sulforhodamine B assay
# Assay type: functional
# Conditions: CAKI-1, 48 h, read-out: Activity
row,SMILES,growth at 10 µM
1,CNC(=O)c1cc(Oc2ccc3nc(NC(=O)Nc4ccc(Cl)c(C(F)(F)F)c4)sc3c2)ccn1,-16%

# Test system: SN12C
# Test: Antiproliferative activity against human SN12C cells assessed as cell growth at 10^-5 M after 48 hrs by sulforhodamine B assay
# Assay type: functional
# Conditions: read-out: Activity
row,SMILES,growth at 10 µM
1,CNC(=O)c1cc(Oc2ccc3nc(NC(=O)Nc4ccc(Cl)c(C(F)(F)F)c4)sc3c2)ccn1,1%

# Test system: not listed separately
# Test: Antiproliferative activity against human TK10 cells assessed as cell growth at 10^-5 M after 48 hrs by sulforhodamine B assay
# Assay type: functional
# Conditions: TK-10, 48 h, read-out: Activity
row,SMILES,growth at 10 µM
1,CNC(=O)c1cc(Oc2ccc3nc(NC(=O)Nc4ccc(Cl)c(C(F)(F)F)c4)sc3c2)ccn1,-55%

# Test system: not listed separately
# Test: Antiproliferative activity against human UO31 cells assessed as cell growth at 10^-5 M after 48 hrs by sulforhodamine B assay
# Assay type: functional
# Conditions: UO-31, 48 h, read-out: Activity
row,SMILES,growth at 10 µM
1,CNC(=O)c1cc(Oc2ccc3nc(NC(=O)Nc4ccc(Cl)c(C(F)(F)F)c4)sc3c2)ccn1,-54%

# Test system: MCF7
# Test: Antiproliferative activity against human MCF7 cells assessed as cell growth at 10^-5 M after 48 hrs by sulforhodamine B assay
# Assay type: functional
# Conditions: MCF7, 48 h, read-out: Activity
row,SMILES,growth at 10 µM
1,CNC(=O)c1cc(Oc2ccc3nc(NC(=O)Nc4ccc(Cl)c(C(F)(F)F)c4)sc3c2)ccn1,-3%

# Test system: MDA-MB-231
# Test: Antiproliferative activity against human MDA-MB-231 cells assessed as cell growth at 10^-5 M after 48 hrs by sulforhodamine B assay
# Assay type: functional
# Conditions: MDA-MB-231, 48 h, read-out: Activity
row,SMILES,growth at 10 µM
1,CNC(=O)c1cc(Oc2ccc3nc(NC(=O)Nc4ccc(Cl)c(C(F)(F)F)c4)sc3c2)ccn1,-38%

# Test system: not listed separately
# Test: Antiproliferative activity against human Hs 578T cells assessed as cell growth at 10^-5 M after 48 hrs by sulforhodamine B assay
# Assay type: functional
# Conditions: read-out: Activity
row,SMILES,growth at 10 µM
1,CNC(=O)c1cc(Oc2ccc3nc(NC(=O)Nc4ccc(Cl)c(C(F)(F)F)c4)sc3c2)ccn1,-17%

# Test system: not listed separately
# Test: Antiproliferative activity against human BT549 cells assessed as cell growth at 10^-5 M after 48 hrs by sulforhodamine B assay
# Assay type: functional
# Conditions: BT-549, 48 h, read-out: Activity
row,SMILES,growth at 10 µM
1,CNC(=O)c1cc(Oc2ccc3nc(NC(=O)Nc4ccc(Cl)c(C(F)(F)F)c4)sc3c2)ccn1,-1%

# Test system: T47D
# Test: Antiproliferative activity against human T47D cells assessed as cell growth at 10^-5 M after 48 hrs by sulforhodamine B assay
# Assay type: functional
# Conditions: read-out: Activity
row,SMILES,growth at 10 µM
1,CNC(=O)c1cc(Oc2ccc3nc(NC(=O)Nc4ccc(Cl)c(C(F)(F)F)c4)sc3c2)ccn1,-34%
